Measurements taken from PubChem BioAssay (NCI).
Several values for one entry are separate records, joined by “and”; a condition that tells them apart may be missing. Identical values can stand only once.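 Interpolation was linear, between the two tested concentrations surrounding the appropriate level; five concentrations were tested over 48 hours in 96-well plates. GI50 is the concentration that inhibits growth by half. The concentration for full growth arrest is given as TGI.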

Experiments:
Test in all cases: growth of human tumour cells (NCI), 48 h
SF-295 CNS = tested on: SF-295 CNS
HCT-15 colon = tested on: HCT-15 colon
CAKI-1 renal = tested on: CAKI-1 renal
SK-MEL-2 melanoma = tested on: SK-MEL-2 melanoma
MALME-3M melanoma = tested on: MALME-3M melanoma
SK-OV-3 ovarian = tested on: SK-OV-3 ovarian
SK-MEL-28 melanoma = tested on: SK-MEL-28 melanoma
NCI-H226 lung = tested on: NCI-H226 lung
SR leukemia = tested on: SR leukemia
HT29 colon = tested on: HT29 colon

| Compound | GI50 (SF-295 CNS) | TGI (SF-295 CNS) | GI50 (HCT-15 colon) | TGI (HCT-15 colon) | GI50 (CAKI-1 renal) | TGI (CAKI-1 renal) | GI50 (SK-MEL-2 melanoma) | TGI (SK-MEL-2 melanoma) | GI50 (MALME-3M melanoma) | TGI (MALME-3M melanoma) | GI50 (SK-OV-3 ovarian) | TGI (SK-OV-3 ovarian) | GI50 (SK-MEL-28 melanoma) | TGI (SK-MEL-28 melanoma) | GI50 (NCI-H226 lung) | TGI (NCI-H226 lung) | GI50 (SR leukemia) | TGI (SR leukemia) | GI50 (HT29 colon) | TGI (HT29 colon) |
| --- | --- | --- | --- | --- | --- | --- | --- | --- | --- | --- | --- | --- | --- | --- | --- | --- | --- | --- | --- | --- |
| O=C(COC(=O)[C@H](C[Se][Se]C[C@H](NC(=O)c1ccc(Br)cc1F)C(=O)OCC(=O)c1ccc(F)cc1)NC(=O)c1ccc(Br)cc1F)c1ccc(F)cc1 | 0.0511 µM | 0.18 µM | 1.34 µM | 4.03 µM | 0.716 µM | 2.66 µM | 1.66 µM | 4.74 µM | 0.639 µM | 1.64 µM | 0.415 µM | 1.31 µM | 0.631 µM | 1.63 µM | 1.02 µM | 3.63 µM | 0.92 µM | > 43.5 µM | 0.916 µM | > 58.7 µM |
| CC1=CC(=O)N2[C@H](OC[C@@H]2C(C)C)O1 | – | > 100 µM | – | > 100 µM | – | > 100 µM | – | > 100 µM | – | > 100 µM | – | > 100 µM | – | > 100 µM | – | > 100 µM | – | > 100 µM | – | > 100 µM |
| CCc1c[nH]c2ncnc(N3CC[C@](N)(CNC(=O)c4ccc(F)cc4F)C3)c12 | 1 µM | > 100 µM | 15.5 µM | > 100 µM | 8.62 µM | > 63.6 µM | 28 µM | > 100 µM | 3.4 µM | 39.5 µM | 0.973 µM | > 62.1 µM | 7.46 µM | > 100 µM | 5.75 µM | > 77.7 µM | 2.19 µM | > 66.3 µM | 3.1 µM | > 100 µM |
| CC(=O)OC1CCC2(C)C(=CCC3C4CC(CN5CC5)C(=O)C4(C)CCC32)C1 (stereo not drawn) | 22 µM | > 55.4 µM | 2.27 µM | 5.62 µM | 2.21 µM | 6.02 µM | 14 µM | 28.2 µM | 2.21 µM | 5.56 µM | 15.6 µM | 29.6 µM | 13.5 µM | 27.3 µM | 14.8 µM | 40.2 µM | 3.39 µM | 13.5 µM | 3.39 µM | 12.6 µM |
| Cn1ncc2c(c1=O)Nc1ccccc1S2(=O)=O | – | > 100 µM | – | > 100 µM | – | > 100 µM | – | > 100 µM | – | > 100 µM | – | > 100 µM | – | > 100 µM | – | > 100 µM | – | > 100 µM | – | > 100 µM |
| Cn1c(=O)c(-c2c(Cl)cccc2Cl)cc2cnc(Nc3ccc(N4CCOCC4)cc3)nc21 | 0.2 µM | > 100 µM | 0.0944 µM | > 100 µM | < 0.01 µM | 0.0806 µM | 2.48 µM | > 100 µM | 0.0196 µM | 0.491 µM | < 0.01 µM | > 100 µM | 0.675 µM | > 100 µM | 0.0748 µM | > 100 µM | 0.14 µM | 0.471 µM | < 0.0467 µM | 1.17 µM |
| NC(=O)NC(=O)C1CCC(=O)N1S(=O)(=O)c1ccc(Cl)cc1 (stereo not drawn) | – | > 100 µM | – | > 100 µM | – | > 100 µM | – | > 100 µM | – | > 100 µM | – | > 100 µM | – | > 100 µM | – | > 100 µM | – | > 100 µM | – | > 100 µM |
| CCCNc1ncnc2c1cnn2C | – | > 100 µM | – | > 100 µM | – | > 100 µM | – | > 100 µM | – | > 100 µM | – | > 100 µM | – | > 100 µM | – | > 100 µM | – | > 100 µM | – | > 100 µM |
| Cc1c(N)nc(C2CC(=O)N2CC(N)C(N)=O)nc1C(=O)NC(C(=O)NC(C)C(O)C(C)C(=O)NC(C(=O)NCCc1nc(-c2nc(C(=O)NCCNCC(C)O)cs2)cs1)C(C)O)C(OC1OC(CO)C(O)C(O)C1OC1OC(CO)C(O)C(OC(N)=O)C1O)c1cnc[nH]1 (stereo not drawn) | 0.46 µM | 12.1 µM and 15.7 µM | 42.7 µM | 50 µM and > 75.9 µM | 0.0234 µM | – | 31.7 µM | 50 µM and > 79.2 µM | 1.16 µM | 22.5 µM and 11.9 µM | 10.6 µM | 50 µM and > 32.9 µM | > 50 µM | > 100 µM | – | 0.261 µM | 0.005 µM | 50 µM | 33.1 µM | 50 µM and > 100 µM |
| CCOC(=O)C1=C(O)c2c(OC)ccc(OC)c2C(=O)C1=O | – | > 100 µM | – | > 100 µM | – | > 100 µM | – | > 100 µM | – | > 100 µM | – | > 100 µM | – | > 100 µM | – | > 100 µM | – | > 100 µM | – | > 100 µM |
| O=C1C(=O)c2c(ccc3ccccc23)-c2ccccc21 | 1.92 µM | 4.6 µM | 1.02 µM | 6.43 µM | 2.7 µM | > 100 µM | 1.73 µM | 3.78 µM | 1.63 µM | 3.44 µM | 2.05 µM | 5.06 µM | 1.73 µM | 3.67 µM | 2.02 µM | 5.02 µM | 2.69 µM | > 100 µM | 2.52 µM | 6.21 µM |
